The text below walks through data of patent EP0158075A1, “Immuno stimulating composition” (BAYER AG, priority 1984, dated 1985).

For assay [1], the system named is Salmonella typhimurium. The experiment in a line: Survival of mice after intraperitoneal infection with Salmonella typhimurium (Beispiel B). Format: in vivo, Mäuse. Conditions: 10 mg/kg per os once daily on 4 consecutive days, starting 1 day after i.p. infection with 7 x 10^5 colony-forming units. The text has this: Substanzen, die die körpereigene Abwehr (Immunsystem) während einer Infektion stimulieren, sind sowohl für die Human- wie für die Veterinärmedizin von großem Interesse, da viele Infektionen trotz guter chemotherapeutischer Möglichkeiten ohne Unterstützung durch körpereigene Abwehrmechanismen persistieren. Dies kann zum erneuten Auftreten von Symptomen (Rezidiv) nach dem überstehen der Ersterkrankung und damit zu chronisch rezidivierenden Krankheiten führen. Unter den durch Bakterien bedingten Erkrankungen sind es besonders Infektionen mit sogenannten fakultativ intrazellulären Bakterien, die Probleme darstellen. Darunter versteht man Bakterien, die sich nach Aufnahme in die Makrophagen (Phagozytose) weiter vermehren. Es bedarf erst einer weiteren Stimulierung der Makrophagen über das Immunsystem, um diese intrazellulären Bakterien abzutöten. Ein Experimentalmodell für eine solche Erkrankung stellt die Infektion der Maus mit Salmonella typhimurium dar. Nach Inokulation der Mäuse mit diesem humanpathogenen Bakterium kommt es in Abhängigkeit von der Infektionsdosis zu einem subakut bis chronischen Krankheitsverlauf, bei dem die Tiere erst nach 4 bis 7 Tagen abzusterben beginnen. Während dieses Zeitraumes besteht die Möglichkeit, das Immunsystem durch Substanzen zu beeinflussen. Bei den meisten anderen tierexperimentellen Infektionen, kommt es zu einem sehr schnellen Absterben der Tiere innerhalb von 1 bis 2 Tagen. Damit besteht keine Möglichkeit mehr, die Abwehr während der Infektion zu stimulieren. 1-[3-Methyl-4-(4'-trifluormethylthio-phenoxy)-phenyl]-3-methyl-1,3,5-triazin-trion wurde Mäusen an 4 aufeinanderfolgenden Tagen einmal täglich per os in unterschiedlichen Dosen verabfolgt, beginnend 1 Tag nach intraperitonealer Infektion mit 7 x 10^5 Kolonien-bildenden Einheiten von Salmonella typhimurium. Diese Infektionsdosis führt bei unbehandelten Tieren innerhalb von 4 bis 6 Tagen zu einem Absterben von 70 bis 90 % der Tiere. […]

For assay [2], the system named is Salmonella typhimurium. The experiment in a line: In vitro direct effect on growth of Salmonella typhimurium. Format: cell-based.

As to `Cc1cc(-n2c(=O)[nH]c(=O)n(C)c2=O)ccc1Oc1ccc(SC(F)(F)F)cc1` [1-[3-Methyl-4-(4'-trifluormethylthio-phenoxy)-phenyl]-3-methyl-1,3,5-triazin-2,4,6-(1H, 3H, 5H)-trion], in the assay with Salmonella typhimurium [1] (day 6 after infection), the “Überlebende Mäuse (%) an folgenden Tagen nach Infektion: 6. Tag” value is listed as 90%. Moreover, the “Überlebende Mäuse (%) an folgenden Tagen nach Infektion: 12. Tag” value with Salmonella typhimurium [1] (day 12 after infection) was 60%. The “Überlebende Mäuse (%) an folgenden Tagen nach Infektion: 18. Tag” value with Salmonella typhimurium [1] (day 18 after infection) amounted to 60%. For the same compound, the “direkter Effekt auf die Vermehrung von Salmonella typhimurium” value in the assay with Salmonella typhimurium [2] is “keinen direkten Effekt”.
